The pIC50 is −log10 of the IC50, conventionally taken in molar units.

From patent US7112698B2, “4-(c2-6alkoxy)-substituted chalcones as therapeutic agents” (Spear Therapeutics Limited, priority 2001, dated 2006) come the findings set out here.

Each structure is given as a SMILES string. pIC50: −log10 of the molar value. Like-named read-outs stand apart in the source and are kept apart here.

One experiment deals with MCF-7 cells. In words: MCF-7 cell line (non-induced) cytotoxicity assay, MTT. The format is cell-based. To be noted: Homo sapiens, MCF7. The source says: (§1) CYP1A1 and CYP1B1 enzyme activity is induced by TCDD (tetrachlorodibenzodioxin (Dioxin)) in breast tumour MCF-7 cells (see, e.g., Sutter et al., 1994). CYP1B1 is expressed in a variety of human tumours, and can be inducible by TCDD in numerous cell types including breast, liver, lung, and kidney (see, e.g., Murray et al., 1997). CYP1B1 is known to catalyse estradiol 4-hydroxylation metabolism. In untreated culture, the constitutive rate of estradiol E2 metabolism in MCF-7 cells is minimal. However, treatment with TCDD causes a marked increase in the rate of E2 metabolism (see, e.g., Spink et al., 1994). […] Therefore the cytotoxicity of compounds in non-induced MCF-7 cells correlates to the cytotoxicity of compounds against normal cells, whilst the cytotoxicity of compounds against TCDD-induced MCF-7 cells correlates to the cytotoxicity of compounds against real tumours that express CYP1B1.
(§2) The cytotoxicity of compounds in non-induced MCF-7 cells correlates to the cytotoxicity of compounds against normal cells, whilst the cytotoxicity of compounds against TCDD-induced MCF-7 cells correlates to the cytotoxicity of compounds against real tumours that express CYP1B1.
(§3) Cells were maintained in RPMI 1640 with Glutamax 1 (Life Technologies) with 10% (v/v) heat inactivated foetal calf serum (Hybrimax. Sigma), at 37° C., 5% CO2/95% air with 100% humidity and passaged using trypsin/EDTA. 1×10^3 cells were plated out in 100 μl medium per well of 96-well flat-bottomed plates (Fisher). After 4 hours to allow adherance, 100 μl of medium containing TCDD (British Greyhound Chromatography; 10 μM stock in DMSO (dimethylsulfoxide)) or medium with 0.2% (v/v) DMSO as control was added to each well to give a final concentration of 10 nM TCDD, 0.1% (v/v) DMSO, for 24 hours to allow maximal CYP expression. The medium was then carefully aspirated and 100 μl fresh medium added. Within 30 minutes test compound was added in quadruplicate in 100 μl medium (with or without inhibitors) at double the final concentration from 100 mM stock in DMSO to give a final concentration of not more than 0.1% (v/v) DMSO, or DMSO solvent alone at 0.1% (v/v) as control. The cells were then allowed to grow on for 96 hours to give 80–90% confluence in the control wells. 50 μl MTT (Thiazol blue, Sigma) at 2 mg/ml in Dulbecco's phosphate buffered saline-A, was then added to each well for 3 hours. All medium was aspirated, then the formazan product generated by viable cells was solubilized with 150 μl DMSO. Plates were vortexed and the absorbance at 540 nm determined using a plate reader. Results were expressed as the percentage of 100% (control) proliferation and the IC50 calculated using the line of best fit for a sigmoidal dose response curve with variable slope using Graphpad Prizm software. All determinations were carried out in at least triplicate.

A further experiment has as its system TCDD-induced MCF-7 cells. In words: TCDD-induced MCF-7 cell line cytotoxicity assay, MTT. The format is cell-based, human. Particulars: for pIC50: Homo sapiens, MCF7, MCF-7 cells induced with 10 nM TCDD for 24 hours, 96 hours, MTT; for Tumour Selectivity Differential Factor: MCF-7 IC50 versus TCDD-induced MCF-7 IC50 (Table 1); for more toxic to “tumour” cells than to “normal” cells: TCDD-induced MCF-7 versus MCF-7.
Text: as §1, §2
as §3, with “triplicate. […]” for “triplicate.”

[1] abbreviates: non-induced MCF-7 cells, 96 hours, MTT, read-out: MCF-7 Cells IC50.
Setting [2] is: prodrug / hydroxylated metabolite illustration, read-out: IC50 in breast cancer MCF-7 cells.

As to `CCCOc1ccc(/C=C/C(=O)c2ccc(OC)c(OC)c2OC)cc1` [DMU-420, (E)-1-(4-propoxyphenyl)-3-(2,3,4-trimethoxyphenyl)prop-1-en-3-one], the pIC50 is 4.70 in the experiment with MCF-7 cells (setting [1]) and 5.43 with TCDD-induced MCF-7 cells. The “Tumour Selectivity Differential Factor” value in the experiment on TCDD-induced MCF-7 cells turned out to be 5.

Turning to `CCCCOc1ccc(/C=C/C(=O)c2cc(OC)cc(OC)c2)cc1` [DMU-176, (E)-1-(4-butoxyphenyl)-3-(3,5-dimethoxyphenyl)prop-1-en-3-one], the pIC50 in the experiment with MCF-7 cells (setting [1]) is 4.70; in the experiment on TCDD-induced MCF-7 cells, 5.96. In addition, in the experiment with TCDD-induced MCF-7 cells, the “Tumour Selectivity Differential Factor” value amounted to 18.

Regarding `CCCCOc1ccc(/C=C/C(=O)c2cc(OC)c(OC)c(OC)c2)cc1` [DMU-192, (E)-1-(4-butoxyphenyl)-3-(3,4,5-trimethoxyphenyl)prop-1-en-3-one], in the experiment with MCF-7 cells (setting [1]), the pIC50 is 4.70. Also, in the experiment on TCDD-induced MCF-7 cells, the pIC50 was 5.80 and the “Tumour Selectivity Differential Factor” value was 12.

`CCOc1ccc(/C=C/C(=O)c2cc(OC)cc(OC)c2)cc1` [DMU-174, (E)-1-(4-ethoxyphenyl)-3-(3,5-dimethoxyphenyl)prop-1-en-3-one]: the pIC50 in the experiment on MCF-7 cells (setting [1]) was 5.70. In addition, in the experiment on TCDD-induced MCF-7 cells, the pIC50 is 6.22 and the “Tumour Selectivity Differential Factor” value is 3.

`CCCOc1ccc(/C=C/C(=O)c2ccc(OC)cc2OC)cc1` [DMU-408, (E)-1-(4-propoxyphenyl)-3-(2,4-dimethoxyphenyl)prop-1-en-3-one]: the pIC50 was 5.00 with MCF-7 cells (setting [1]) and 5.89 in the experiment with TCDD-induced MCF-7 cells. In addition, the “Tumour Selectivity Differential Factor” value in the experiment on TCDD-induced MCF-7 cells stood at 8.

Consider `COc1ccc(/C=C/C(=O)c2cc(OC)cc(OC)c2)cc1` [(E)-1-(4-methoxyphenyl)-3-(3,5-dimethoxyphenyl)prop-1-en-3-one, reference compound], for which the pIC50 in the experiment on MCF-7 cells (setting [2]) was 6.16.

Turning to `CCCOc1ccc(/C=C/C(=O)c2cc(OC)cc(OC)c2)cc1O` [DMU-185, (E)-1-(3-hydroxy-4-propoxyphenyl)-3-(3,5-dimethoxyphenyl)prop-1-en-3-one], the values for the pIC50 in the experiment with MCF-7 cells (setting [1]) and in the experiment with TCDD-induced MCF-7 cells were 5.10 and 6.18, respectively. Besides, in the experiment with TCDD-induced MCF-7 cells, the “Tumour Selectivity Differential Factor” value is on record as 12.

Turning to `CCOc1ccc(/C=C/C(=O)c2cc(OC)c(OC)c(OC)c2)cc1` [DMU-190, (E)-1-(4-ethoxyphenyl)-3-(3,4,5-trimethoxyphenyl)prop-1-en-3-one], in the experiment with MCF-7 cells (setting [1]), the pIC50 is 6.12. For the same compound, in the experiment on TCDD-induced MCF-7 cells, the pIC50 is 6.41 and the “Tumour Selectivity Differential Factor” value worked out at 2.

Take `CCCOc1ccc(/C=C/C(=O)c2cccc(OC)c2)cc1` [DMU-417, (E)-1-(4-propoxyphenyl)-3-(3-methoxyphenyl)prop-1-en-3-one]: in the experiment with MCF-7 cells (setting [1]), the pIC50 is 4.55. Besides, in the experiment on TCDD-induced MCF-7 cells, the pIC50 was 5.00 and the “Tumour Selectivity Differential Factor” value was determined as 3.

With `COc1cc(OC)cc(C(=O)/C=C/c2ccc(OC)c(O)c2)c1` [(E)-1-(3-Hydroxy-4-methoxyphenyl)-3-(3,5-dimethoxyphenyl)prop-1-en-3-one, reference compound], the pIC50 in the experiment with MCF-7 cells (setting [2]) is 9.19.

Turning to `CCCCOc1ccc(/C=C/C(=O)c2cc(OC)cc(OC)c2)cc1O` [DMU-186, (E)-1-(3-hydroxy-4-butoxyphenyl)-3-(3,5-dimethoxyphenyl)prop-1-en-3-one], the pIC50 with MCF-7 cells (setting [1]) was 4.52. Besides, in the experiment on TCDD-induced MCF-7 cells, the pIC50 is 6.19, the “Tumour Selectivity Differential Factor” value came out at 46 and the “more toxic to “tumour” cells than to “normal” cells” value is 46 fold.

Turning to `CCCOc1ccc(/C=C/C(=O)c2cc(OC)c(OC)c(OC)c2)cc1` [DMU-191, (E)-1-(4-propoxyphenyl)-3-(3,4,5-trimethoxyphenyl)prop-1-en-3-one], in the experiment on MCF-7 cells (setting [1]), the pIC50 was 5.00. Also, in the experiment with TCDD-induced MCF-7 cells, the pIC50 is 6.38, the “Tumour Selectivity Differential Factor” value was determined as 24 and the “more toxic to “tumour” cells than to “normal” cells” value amounted to 24 fold.

For the compound `COc1cc(OC)cc(C(=O)/C=C/c2ccc(OC(C)C)cc2)c1` [DMU-401, (E)-1-(4-isopropoxyphenyl)-3-(3,5-dimethoxyphenyl)prop-1-en-3-one], the pIC50 with MCF-7 cells (setting [1]) was 5.17. In addition, in the experiment with TCDD-induced MCF-7 cells, the pIC50 is 6.10 and the “Tumour Selectivity Differential Factor” value worked out at 9.

As for `CCCCOc1ccc(/C=C/C(=O)c2cc(OC)c(OC)c(OC)c2)cc1O` [DMU-189, (E)-1-(3-hydroxy-4-butoxyphenyl)-3-(3,4,5-trimethoxyphenyl)prop-1-en-3-one], the values for the pIC50 with MCF-7 cells (setting [1]) and in the experiment on TCDD-induced MCF-7 cells were 5.08 and 5.60, respectively. Moreover, the “Tumour Selectivity Differential Factor” value in the experiment on TCDD-induced MCF-7 cells came out at 3.

Consider `CCCOc1ccc(/C=C/C(=O)c2cc(OC)c(OC)c(OC)c2)cc1O` [DMU-188, (E)-1-(3-hydroxy4-propoxyphenyl)-3-(3,4,5-trimethoxyphenyl)prop-1-en-3-one], for which the negative-log IC50 (pIC50) was 5.35 with MCF-7 cells (setting [1]) and 6.22 in the experiment with TCDD-induced MCF-7 cells. Further, the “Tumour Selectivity Differential Factor” value in the experiment with TCDD-induced MCF-7 cells came to 8.

With `COc1cc(OC)cc(C(=O)/C=C/c2ccc(OC(C)(C)C)cc2)c1` [DMU-402, (E)-1-(4-tertbutoxyphenyl)-3-(3,5-dimethoxyphenyl)prop-1-en-3-one, reference compound], in the experiment with MCF-7 cells (setting [1]), the pIC50 is 5.21. Also, in the experiment on TCDD-induced MCF-7 cells, the pIC50 is 5.21 and the “Tumour Selectivity Differential Factor” value was determined as 1.

Take `CCCOc1ccc(/C=C(\C)C(=O)c2cc(OC)cc(OC)c2)cc1` [DMU-432, (E)-1-(4-propoxyphenyl)-2-methyl-3-(3,5-dimethoxyphenyl)prop-1-en-3-one]: the figures for the pIC50 in the experiment on MCF-7 cells (setting [1]) and with TCDD-induced MCF-7 cells were 6.15 and 7.10, respectively. In the experiment on TCDD-induced MCF-7 cells, the “Tumour Selectivity Differential Factor” value came to 9.

Turning to `CCCOc1ccc(/C=C/C(=O)c2cc(OC)ccc2OC)cc1` [DMU-424, (E)-1-(4-propoxyphenyl)-3-(2,5-dimethoxyphenyl)prop-1-en-3-one], the pIC50 with MCF-7 cells (setting [1]) was 4.92. Also, in the experiment with TCDD-induced MCF-7 cells, the pIC50 is 5.70 and the “Tumour Selectivity Differential Factor” value was 6.
